# Experimental data: patent US6221865A, “Inhibitors of protein isoprenyl transferases” (priority 1998, dated 2001)
# Structures can show the parent of a compound that is named as a salt. Where two headings read alike, the source gives them in different places.
# Target: T1, protein farnesyltransferase (Rattus norvegicus, UniProt Q02293+Q04631)
# T1 construct: The enzyme is purified according to Reiss, Y., et al., Cell, 62: 81-88 (1990), utilizing steps one through three; from tissue; host or cells: rat brain
# Test: Inhibition of farnesyltransferase (scintillation proximity assay, rat brain enzyme, biotin-K Ras B fragment substrate)
# Format: biochemical
# Details: for % inhibition of farnesyltransferase at 1 × 10^-6 M / inhibition at 1 µM: 1 × 10^-6 M (Table 2); for inhibition at 1 µM: read-out: % inhibition of farnesyltransferase at 1 × 10^-6 M; for % inhibition of farnesyltransferase at 1 × 10^-8 M: 1 × 10^-8 M (Table 4); for % inhibition of farnesyltransferase at 1 × 10^-5 M: 1 × 10^-5 M (Table 1)
# Source text: The ability of the compounds of the invention to inhibit protein farnesyltransferase or protein geranylgeranyltransferase can be measured according to the method of Moores, et al., J. Biol. Chem. 266: 14603 (1991) or the method of Vogt, et al., J. Biol. Chem. 270:660-664 (1995). In addition, procedures for determination of the inhibition of farnesylation of the oncogene protein Ras are described by Goldstein, et al., J. Biol. Chem., 266:15575-15578 (1991) and by Singh in U.S. Pat. No. 5,245,061.
# In addition, in vitro inhibition of protein farnesyltransferase may be measured by the following procedure. Rat brain protein farnesyltransferase activity is measured using an Amersham Life Science commercial scintillation proximity assay kit and substituting a biotin-K Ras B fragment (biotin-[…]Ble-Met-CO2 H), […] final concentration, for the biotin-lamin substrate provided by Amersham. The enzyme is purified according to Reiss, Y., et al., Cell, 62: 81-88 (1990), utilizing steps one through three.
# The % inhibition of protein farnesyltransferase was determined for representative compounds of the invention.
# [1] = read-out: % inhibition at 0.1 μM (*), Table 6, * = 0.1 μM (footnote), title prints 0.1 mM
# [2] = Table 6, ** = 0.01 μM (footnote), title prints 0.01 mM
# [3] = read-out: % inhibition of farnesyltransferase at 1 × 10^-7 M, 1 × 10^-7 M (Table 3)
# T1 sequence (Q02293 whole entry, one chain of several): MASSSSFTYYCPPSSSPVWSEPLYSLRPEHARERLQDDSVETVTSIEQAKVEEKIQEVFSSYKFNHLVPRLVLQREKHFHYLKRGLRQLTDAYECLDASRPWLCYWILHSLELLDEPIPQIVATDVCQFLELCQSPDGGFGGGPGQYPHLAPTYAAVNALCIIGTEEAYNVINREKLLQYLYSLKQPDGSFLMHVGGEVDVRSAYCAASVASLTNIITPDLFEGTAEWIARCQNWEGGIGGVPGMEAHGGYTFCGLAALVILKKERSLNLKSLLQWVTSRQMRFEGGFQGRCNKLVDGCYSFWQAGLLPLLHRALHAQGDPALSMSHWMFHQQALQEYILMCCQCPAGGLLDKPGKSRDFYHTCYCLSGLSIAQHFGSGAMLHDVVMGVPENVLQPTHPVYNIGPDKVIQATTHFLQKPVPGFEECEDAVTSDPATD
smiles,measurement,setting,value
CSCC[C@H](NC(=O)c1ccc(CN[C@H](CSC(C)(C)C)CC2CCCCC2)cc1-c1ccccc1C)C(=O)O [Example 622],% inhibition of farnesyltransferase at 1 × 10^-7 M,1 × 10^-7 M (Table 3),95%
CSCC[C@H](NC(=O)c1ccc(CSc2nnc(N)s2)cc1-c1ccccc1C)C(=O)O [Example 734],% inhibition of farnesyltransferase at 1 × 10^-7 M,1 × 10^-7 M (Table 3),49%
"CCCCP(=O)(CCCC)Cc1ccc(C(=O)N[C@@H](CCSC)C(=O)O)c(-c2ccccc2C)c1 [Example 1222, N-[4-(Dibutyl(oxophosphinyl)methyl)-2-(2-methylphenyl)benzoyl]methionine]",inhibition at 0.1 µM,[1],89%
CSCC[C@H](NC(=O)c1ccc(CNc2ccc(C(O)(C(F)(F)F)C(F)(F)F)cc2)cc1-c1ccccc1)C(=O)O [Example 693],% inhibition of farnesyltransferase at 1 × 10^-6 M,,53%
CSCC[C@H](NC(=O)c1ccc(COCC2CCCO2)cc1-c1ccccc1)C(=O)O (stereo partly drawn) [Example 288],% inhibition of farnesyltransferase at 1 × 10^-6 M,,22%
CSCC[C@H](NC(=O)c1ccc(OCCCOc2ccccc2)cc1-c1ccccc1C)C(=O)O [Example 566],% inhibition of farnesyltransferase at 1 × 10^-6 M,,98%
Cc1ccccc1-c1cc(CN(C)C(C)(C)CC2CCCCC2)ccc1C(=O)N[C@@H](CCS(C)(=O)=O)C(=O)O [Example 314],inhibition at 1 µM,,97%
CSCC[C@H](NC(=O)c1ccc(CN(CCC2CCCCC2)Cc2ccccc2)cc1-c1ccccc1C)C(=O)[O-].[Li+] [Example 605],% inhibition of farnesyltransferase at 1 × 10^-8 M,,68%
CSCC[C@H](NC(=O)c1ccc(CN(CC23CC4CC(CC(C4)C2)C3)c2ccccc2)cc1-c1ccccc1C)C(=O)O [Example 510],% inhibition of farnesyltransferase at 1 × 10^-6 M,,84%
CCSCC(CC1CCCCC1)NCc1cc(-c2ccccc2C)c(C(=O)N[C@@H](CCSC)C(=O)O)cc1F (stereo partly drawn) [Example 1134],% inhibition at 0.01 μM (**),[2],95%
"CSCC[C@H](NC(=O)c1ccc(CCc2ccccc2-c2ccccc2)cc1-c1ccccc1C)C(=O)O [Example 452, N-[4-(2-(2-phenylphenyl)ethyl)-2-(2-methylphenyl)benzoyl]methionine lithium salt]",inhibition at 1 µM,,96%
CSCC[C@H](NC(=O)c1ccc(CN(Cc2ccccc2)c2cncnc2)cc1-c1ccccc1C)C(=O)O [Example 836],% inhibition of farnesyltransferase at 1 × 10^-8 M,,95%
CSCC[C@H](NC(=O)c1ccc(COCc2cncs2)cc1-c1ccccc1C)C(=O)[O-].[Li+] [Example 539],% inhibition of farnesyltransferase at 1 × 10^-7 M,1 × 10^-7 M (Table 3),89%
CSCC[C@H](NC(=O)c1ccc(CO[C@H](CSC(C)(C)C)Cc2ccccc2)cc1-c1ccccc1C)C(=O)O [Example 994],% inhibition of farnesyltransferase at 1 × 10^-8 M,,83%
COc1cc2c(cc1OC)C(CNCc1ccc(C(=O)N[C@@H](CCSC)C(=O)O)c(-c3ccccc3)c1)=CC(C1CCCCC1)C2 (stereo partly drawn) [Example 659],% inhibition of farnesyltransferase at 1 × 10^-5 M,,55%
COc1ccc(-c2ccc(COCc3ccc(C(=O)N[C@@H](CCSC)C(=O)[O-])c(-c4ccccc4C)c3)o2)cc1.[Li+] [Example 446],% inhibition of farnesyltransferase at 1 × 10^-7 M,1 × 10^-7 M (Table 3),91%
Cc1ccccc1-c1cc(CN(C2CC2)C2(Cc3ccccc3)CCC2)ccc1C(=O)N[C@@H](CCS(C)(=O)=O)C(=O)O [Example 333],inhibition at 1 µM,,99%
CSCC[C@H](NC(=O)c1ccc(COCCCc2ccccc2)cc1-c1ccccc1C)C(=O)[O-].[Li+] [Example 595],% inhibition of farnesyltransferase at 1 × 10^-6 M,,97%
CSCC[C@H](NC(=O)c1cc(Cc2ccccc2)c(COCCCc2ccccc2)cc1-c1ccccc1C)C(=O)O [Example 925],% inhibition of farnesyltransferase at 1 × 10^-6 M,,87%
CCCC[C@H](CC1CCCCC1)NCc1ccc(C(=O)N[C@@H](CCSC)C(=O)O)c(-c2ccccc2C)c1 [Example 615],% inhibition of farnesyltransferase at 1 × 10^-7 M,1 × 10^-7 M (Table 3),94%
CSCC[C@H](NC(=O)c1ccc(CNc2nccs2)cc1-c1ccccc1)C(=O)O [Example 374],% inhibition of farnesyltransferase at 1 × 10^-5 M,,61%
"CSCC[C@H](NC(=O)c1ccc(/C=C/c2ccc(Oc3cccc([N+](=O)[O-])c3)cc2)cc1-c1ccccc1C)C(=O)O [Example 861, N-[4-(2-(4-(3-nitrophenoxy)phenyl)ethen-1-yl)-2-(2-methylphenyl)benzoyl]methioziine]",inhibition at 0.1 µM,[3],65%
CSCC[C@H](NC(=O)c1ccc(NCC(CO)CC2CCCCC2)cc1-c1ccccc1C)C(=O)O (stereo partly drawn) [Example 479],% inhibition of farnesyltransferase at 1 × 10^-6 M,,95%
CSCC[C@H](NC(=O)c1ccc(CN(Cc2ccccc2)c2ccccc2)cc1-c1ccccc1C)C(=O)O [Example 406],% inhibition of farnesyltransferase at 1 × 10^-6 M,,95%
CSCC[C@H](NC(=O)c1ccc(CN2CCC[C@H]2CN(C)C2CCCCC2)cc1-c1ccccc1C)C(=O)O [Example 1127],inhibition at 0.1 µM,[1],90%
CSCC[C@H](NC(=O)c1ccc(CN(CCC2CCCCC2)C2CC2)cc1-c1ccccc1C)C(=O)O [Example 880],% inhibition of farnesyltransferase at 1 × 10^-8 M,,95%
CCCCC(OCc1ccc(C(=O)N[C@@H](CCSC)C(=O)[O-])c(-c2ccccc2C)c1)C1CCNCC1.[Li+] (stereo partly drawn) [Example 1288],% inhibition at 0.1 μM (*),"Table 6, * = 0.1 μM (footnote), title prints 0.1 mM",69%
"CSCC[C@H](NC(=O)c1ccc(CCc2ccccc2Oc2ccccc2)cc1-c1ccccc1C)C(=O)O [Example 455, N-[4-(2-(2-phenoxyphenyl)ethyl)-2-(2-methylphenyl)benzoyl]methionine lithium salt]",inhibition at 0.1 µM,[3],83%
"CSCC[C@H](NC(=O)c1ccc(CN2CCN(c3ccccc3)CC2)cc1-c1ccccc1C)C(=O)O [Example 867, N-[4-(4-phenylpiperazin-1-ylmethyl)-2-(2-methylphenyl)benzoyl]methionine]",inhibition at 1 µM,,71%
CSCC[C@H](NC(=O)c1ccc(COCc2cnc(-c3cccc(Cl)c3)s2)cc1-c1ccccc1C)C(=O)[O-].[Li+] [Example 899],% inhibition of farnesyltransferase at 1 × 10^-8 M,,88%
COc1ccc(CNCc2ccc(C(=O)N[C@@H](CCSC)C(=O)O)c(-c3ccccc3)c2)c(OC)c1 [Example 655],% inhibition of farnesyltransferase at 1 × 10^-6 M,,35%
CSCC[C@H](NC(=O)c1ccc(CN[C@@H](CO)CC2CCCCC2)cc1-c1ccccc1C)C(=O)O [Example 618],% inhibition of farnesyltransferase at 1 × 10^-7 M,1 × 10^-7 M (Table 3),89%
CSCC[C@H](NC(=O)c1ccc(CSCc2ccccc2)cc1-c1ccccc1C)C(=O)NS(=O)(=O)c1ccc(C)cc1 [Example 586],% inhibition of farnesyltransferase at 1 × 10^-8 M,,90%
CSCC[C@H](NC(=O)c1ccc(COCc2ccc(-c3cccc(F)c3)o2)cc1-c1ccccc1C)C(=O)[O-].[Li+] [Example 436],% inhibition of farnesyltransferase at 1 × 10^-7 M,1 × 10^-7 M (Table 3),89%
COc1ccccc1CCOCc1ccc(C(=O)N[C@@H](CCSC)C(=O)O)c(-c2ccccc2C)c1 [Example 589],% inhibition of farnesyltransferase at 1 × 10^-7 M,1 × 10^-7 M (Table 3),91%
CSCC[C@H](NC(=O)c1ccc(CN(CCF)CCC2CCCCC2)cc1-c1ccccc1C)C(=O)O [Example 1094],% inhibition at 0.01 μM (**),[2],96%
CSCC[C@H](NC(=O)c1ccc(CN2CCN(Cc3ccccc3)CC2)cc1-c1ccccc1C)C(=O)O [Example 1025],inhibition at 0.01 µM,"read-out: % inhibition at 0.01 μM (**), Table 6, ** = 0.01 μM (footnote), title prints 0.01 mM",91%
CCSC[C@H](CC1CCCCC1)NCc1ccc(C(=O)N[C@@H](CCSC)C(=O)OCOC(=O)C(C)(C)C)c(-c2ccccc2C)c1 [Example 764],% inhibition of farnesyltransferase at 1 × 10^-6 M,,88%
CSCC[C@H](NC(=O)c1ccc(CN(C2CC2)C(C)(C)CC2CCCCC2)cc1-c1ccccc1C)C(=O)O [Example 316],inhibition at 1 µM,,63%
CSCC[C@H](NC(=O)c1ccc(CNc2cccc(CCC(=O)O)c2)cc1-c1ccccc1)C(=O)O [Example 685],% inhibition of farnesyltransferase at 1 × 10^-5 M,,55%
CSCC[C@H](NC(=O)c1ccc(COCc2ccc(-c3ccc(C(C)C)cc3)o2)cc1-c1ccccc1C)C(=O)[O-].[Li+] [Example 820],% inhibition of farnesyltransferase at 1 × 10^-8 M,,66%
CSCC[C@H](NC(=O)c1ccc(CN[C@H](CSC2CCCCC2)CC2CCCCC2)cc1-c1ccccc1C)C(=O)O [Example 766],% inhibition of farnesyltransferase at 1 × 10^-8 M,,95%
CSCC[C@H](NC(=O)c1ccc(CNc2ccc(-c3ccccc3)cc2)cc1-c1ccccc1)C(=O)O [Example 700],% inhibition of farnesyltransferase at 1 × 10^-5 M,,68%
"Cc1ccccc1-c1cc(CCc2ccc(Oc3ccccc3)cc2)ccc1C(=O)N[C@@H](CC[S+](C)[O-])C(=O)O (stereo partly drawn) [Example 463, N-[4-(2-(4-phenoxyphenyl)ethyl)-2-(2-methylphenyl)benzoyl]-2-amino-4-methylsulfinylbutanoic acid lithium salt]",inhibition at 1 µM,,91%
"CSCC[C@H](NC(=O)c1ccc(/C=C/c2cnccn2)cc1-c1ccccc1C)C(=O)O [Example 495, N-[4-(2-pyrazin-2-ylethen-1-yl)-2-(2-methylphenyl)benzoyl]methionine lithium salt]",inhibition at 1 µM,,95%
